Measurements taken from patent US11746116B2, “Antibiotic resistance breakers” (KING'S COLLEGE LONDON, priority 2017, dated 2023).
Converted amounts (≈) assume the structure as drawn. Each block holds one molecule with its values, some of them ahead of it.

Key:
VRE12201 = assay: MIC, microdilution broth method; type: cell-based, Enterococcus faecalis; details: in µg/mL; for MIC: VRE12201
MSSA9144 = assay: MIC, microdilution broth method; type: cell-based, Staphylococcus aureus; details: in µg/mL; for MIC: MSSA9144
VRE12204 = assay: MIC, microdilution broth method; type: cell-based, Enterococcus faecium; details: in µg/mL
EC12923 = assay: MIC, microdilution broth method; type: cell-based; details: ESKAPE panel, Gram-negative; in µg/mL
PA13437 = assay: MIC, microdilution broth method; type: cell-based; details: for MIC: PA13437, +PMBN
PA01 = assay: MIC, microdilution broth method; type: cell-based, Pseudomonas aeruginosa; details: in µg/mL; for MIC: PA01
VSE775 = assay: MIC, microdilution broth method; type: cell-based, Enterococcus faecalis; parameters: MIC, VSE775: unit not given beside the values
EMRSA16 = assay: MIC, microdilution broth method; type: cell-based, Staphylococcus aureus; details: in µg/mL
KP13368 = assay: MIC, microdilution broth method; type: cell-based; details: for MIC: KP13368, in µg/mL
EMRSA15 = assay: MIC, microdilution broth method; type: cell-based, Staphylococcus aureus; details: in µg/mL
Ab17978 = assay: MIC, microdilution broth method; type: cell-based; details: for MIC: Ab17978
M6 = assay: MIC, microdilution broth method; type: cell-based; details: in µg/mL; for MIC: M6
AYE = assay: MIC, microdilution broth method; type: cell-based, Acinetobacter baumannii; details: in µg/mL
SA7 = assay: MIC, extended Gram-positive panel; type: cell-based, S. aureus; details: S. aureus SA7; gyrA, 84:S => L; grlA, 80:S => F
SA6 = assay: MIC, extended Gram-positive panel; type: cell-based, S. aureus; details: S. aureus SA6; gyrA, 84:S => V; grlA, 80:S => F
SA2 = assay: MIC, extended Gram-positive panel; type: cell-based, S. aureus; details: S. aureus SA2
SH1 = assay: MIC, extended Gram-positive panel; type: cell-based, S. haemolyticus; details: S. haemolyticus SH1
EF1 = assay: MIC, extended Gram-positive panel; type: cell-based, E.faecalis; details: E.faecalis EF1
SE1 = type: cell-based, S. epidermidis; details: S. epidermidis SE1; in µg/mL
EF2 = assay: MIC, extended Gram-positive panel; type: cell-based, E.faecium; details: E.faecium EF2; in µg/mL
SA4 = assay: MIC, extended Gram-positive panel; type: cell-based, S. aureus; details: S. aureus SA4; gyrA, 84:S => L; grlA, 80:S => F
SA9 = type: cell-based, S. aureus; details: S. aureus SA9; gyrA, 84:S => L; grlA, 80:S => F
SA3 = type: cell-based, S. aureus; details: S. aureus SA3; gyrA, 84:S => L; grlA, 80:S => F
SA1 = assay: MIC, extended Gram-positive panel; type: cell-based, S. aureus; details: S. aureus SA1; gyrA, 84:S => L; grlA, 80:S => F
SA5 = type: cell-based, S. aureus; details: S. aureus SA5; gyrA, 84:S => L; grlA, 80:S => F
SA8 = assay: MIC, extended Gram-positive panel; type: cell-based, S. aureus; details: S. aureus SA8; gyrA, 84:S => L; grlA, 80:S => F

- MIC, VRE12201 (VRE12201; ESKAPE panel, Gram-positive): 2
- MIC, MSSA9144 (MSSA9144; ESKAPE panel, Gram-positive): 0.25-0.5
- MIC, VRE12204 (VRE12204; ESKAPE panel, Gram-positive): 8
- MIC, EC12923 (EC12923): 0.5-1
- MIC, PA13437 (PA13437; ESKAPE panel, Gram-negative): > 64 µg/mL
- MIC, PA01 (PA01; ESKAPE panel, Gram-negative): 16
- MIC, VSE775 (VSE775; ESKAPE panel, Gram-positive): 4
- MIC, EMRSA16 (EMRSA16; ESKAPE panel, Gram-positive): 32
- MIC, KP13368 (KP13368; ESKAPE panel, Gram-negative): 32 µg/mL (≈ 79.7 µM)
- MIC, EMRSA15 (EMRSA15; ESKAPE panel, Gram-positive): 32
- MIC, Ab17978 (Ab17978; ESKAPE panel, Gram-negative, in µg/mL): 0.5-1
- MIC, M6 (M6; ESKAPE panel, Gram-negative): 2-4
- MIC, AYE (AYE; ESKAPE panel, Gram-negative): 64
Compound: C[C@H]1COc2c(N3CC[C@@H](N(C)C4CC4)C3)c(F)cc3c(=O)c(C(=O)O)cn1c23 [KSN-L36, (S)-10-((R)-3-(cyclopropyl(methyl)amino)pyrrolidin-1-yl)-9-fluoro-3-methyl-7-oxo-2,3-dihydro-7H-[1,4]oxazino[2,3,4-ij]quinoline-6-carboxylic acid]

Compound: O=C(O)c1cn(C2CC2)c2cc(N3CCN(Cc4cccc5ccccc45)CC3)c(F)cc2c1=O [ML-77-005]
- MIC (VRE12201): 0.5
- MIC (MSSA9144): 0.25-8
- MIC (SA7): 2 µg/mL (≈ 4.24 µM)
- MIC (SA6): 2 µg/mL (≈ 4.24 µM)
- MIC (PA13437): 32 µg/mL (≈ 67.9 µM)
- MIC (SA2): 0.5 µg/mL (≈ 1.06 µM)
- MIC (SH1): 4 µg/mL (≈ 8.48 µM)
- MIC (EF1): 2 µg/mL (≈ 4.24 µM)
- MIC (PA01; +PMBN): <0.12-0.25
- MIC (SE1): 0.25-2
- MIC (EF2): 2
- MIC (SA4): 2 µg/mL (≈ 4.24 µM)
- MIC (SA9): 2 µg/mL (≈ 4.24 µM)
- MIC (Ab17978; +PMBN): −.12-0.25
- MIC (Ab17978; Normal (no PMBN), in µg/mL): 4
- MIC (SA3): 2 µg/mL (≈ 4.24 µM)
- MIC (M6; +PMBN): 0.5
- MIC (M6; Normal (no PMBN)): 32-64
- MIC (SA1): 2 µg/mL (≈ 4.24 µM)
- MIC (SA5): 2 µg/mL (≈ 4.24 µM)
- MIC (SA8): 2 µg/mL (≈ 4.24 µM)

Compound: C[C@H]1COc2c(N3CCN(c4ccncn4)CC3)c(F)cc3c(=O)c(C(=O)O)cn1c23 [ML-83-001, (S)-9-fluoro-3-methyl-7-oxo-10-(4-(pyrimidin-4-yl)piperazin-1-yl)-2,3-dihydro-7H-[1,4]oxazino[2,3,4-ij]quinoline-6-carboxylic acid]
- MIC (VRE12201): 0.25
- MIC (MSSA9144): 0.06
- MIC (VRE12204; VRE12204): 2
- MIC (PA13437): 32 µg/mL (≈ 75.2 µM)
- MIC (PA01; +PMBN): 1
- MIC (PA01; Normal (no PMBN)): 32
- MIC (VSE775; VSE775, in µg/mL): 0.25
- MIC (EMRSA16; EMRSA16): 4
- MIC (KP13368; +PMBN): 4
- MIC (KP13368; Normal (no PMBN)): 64
- MIC (EMRSA15; EMRSA15): 4
- MIC (Ab17978; +PMBN, in µg/mL): 1
- MIC (Ab17978; Normal (no PMBN), in µg/mL): 4
- MIC (M6; +PMBN): 0.5
- MIC (M6; Normal (no PMBN)): 8
- MIC (AYE; AYE, +PMBN): 64

Compound: CCn1cc(C(=O)O)c(=O)c2cc(F)c(N3CCNCC3)cc21 [NOR]
- MIC (SA4): 64 µg/mL (≈ 200 µM)
